Laboratory results as given in paper PMC9562341, “AI protein structure prediction-based modeling and mutagenesis of a protostome receptor and peptide ligands reveal key residues for their interaction” (The Journal of Biological Chemistry, 2022).
Entries after “also recorded” stand apart in the source; their conditions may differ. Where two headings read alike, the source gives them in different places. Where no end group is shown, it is not given here.

Experiments:
[1] = target: T1, ALKR (Aplysia leucokinin-like peptide receptor) (Aplysia californica, UniProt A0A977Q7Q2); assay: IP1 accumulation assay, CHO-K1 cells transfected with ALKR; assay type: cell-based; conditions: for EC50: CHO-K1 transiently transfected with ALKR, no promiscuous Gαq, ALK1 n = 13, ALK2 n = 4, others n = 3; for Activation of ALKR (in words): IP1 accumulation in CHO-K1 transfected with ALKR; for Active (√ active / × not active): ALKR, tick or cross in column Active (EC50)
T1 sequence (A0A977Q7Q2 1-429): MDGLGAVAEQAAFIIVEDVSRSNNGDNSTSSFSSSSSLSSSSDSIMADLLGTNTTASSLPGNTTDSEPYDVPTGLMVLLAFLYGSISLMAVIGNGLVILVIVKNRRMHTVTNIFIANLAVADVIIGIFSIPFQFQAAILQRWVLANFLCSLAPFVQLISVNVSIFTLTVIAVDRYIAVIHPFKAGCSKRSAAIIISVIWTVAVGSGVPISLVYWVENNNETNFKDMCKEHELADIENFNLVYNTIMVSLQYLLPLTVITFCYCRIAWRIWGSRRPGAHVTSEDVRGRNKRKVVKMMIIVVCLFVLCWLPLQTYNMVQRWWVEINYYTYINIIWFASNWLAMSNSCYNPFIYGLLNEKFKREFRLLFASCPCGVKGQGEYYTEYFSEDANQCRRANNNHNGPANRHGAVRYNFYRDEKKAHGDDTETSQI
Description: To examine whether the native ALKs could activate the putative ALKR, we expressed the ALKR in Chinese hamster ovary K1 (CHO-K1) cells and examined ALK-mediated changes in the concentration of inositol monophosphate (IP1), a degradation product of the second messenger (inositol trisphosphate) in the Gq signaling pathway upon ligand-induced activation ([88]) (Figs. 4 and S5). […] All endogenous ALK peptides could activate ALKR in a dose-dependent manner (Fig. 4, A–C). […] The lowest EC50 values were for ALK8 (EC50 = 10 nM) and ALK9 (EC50 = 10 nM). The EC50 values for ALK1, ALK2, ALK3, ALK4, ALK5, ALK10, ALK13 were slightly higher than that of ALK9, but there was no statistically significant difference between them (Table S5).
(§1) IP1 accumulation assay measures concentration of IP1 ([88]), that is hydrolyzed from the second messenger, inositol trisphosphate, generated by Gαq pathway when GPCR expressed in CHO-K1 cells is activated by an appropriate ligand. We note two reasons that we selected mammalian CHO-K1 cells for assays for ligand-receptor (GPCR) activity: (1) there are no established molluscan cell lines available; (2) CHO-K1 cells have been extensively utilized not only for vertebrate GPCRs (e.g., ([97])) but also for invertebrate/protostome GPCRs, including other molluscs ([9], [11], [73]), annelids ([8]), jellyfish ([98]), Caenorrhabditis elegans ([99]), and arthropods ([76], [78], [79], [80]). Given that LKRs are only present in protostomes ([6], [7], [66], [67]), an additional advantage of using mammalian cells to assay ligand-receptor activity is that the effects of a possible native LKR in protostome cell lines could be excluded.
(§2) In order to express the Aplysia putative receptor transiently in CHO-K1, the cDNA was cloned into the mammalian expression vector pcDNA3.1(+). […] Transfection experiments were performed when the cells were grown to 70 to 90% confluence. For the ALKR, in each dish (60-mm diameter), 4 μg of the putative receptor plasmids [in pcDNA3.1(+)] were mixed with 400 μl of Opti-MEM (Gibco, 11058021), followed by the addition of 15 μl of Turbofect (Thermo Fisher Scientific, R0531). […] Thus, 3 μg of the putative receptor plasmids [in pcDNA3.1(+)] and 3 μg of promiscuous Gαq protein ([89]) [in pcDNA3.1(+)] were cotransfected in the above procedure for the Anopheles LKR ([8], [10]). The CHO-K1 cells with the reagents added above were mixed gently and incubated at room temperature for 15 min. The DNA/Turbofect mixture dropwise was then added to the dish, and the cells were incubated at 37 °C in 5% CO2 overnight. The next day, the cells were trypsinized and reseeded in opaque white 96-well half-area (Corning, 3688) or 384-well tissue culture–treated plates (Corning, 3570) at a density of 20,000 cells/well in F-12K and 10% FBS and incubated at 37 °C in 5% CO2 overnight. On the third day, the activation of the receptors was detected by monitoring IP1 accumulation using IP1 detection kit (Cisbio, 62IPAPEB) with a Tecan Spark plate reader. Except for using 0.5 × reagents for the anti-IP1-cryptate and IP1-d2 reagents, all other procedures were performed in accordance with the IP1 detection kit manufacturer’s instructions.

[2] = target: Aplysia leucokinin-like peptide receptor (Aplysia californica)
[3] = target: ALKR Q133A (Aplysia californica)
[4] = target: ALKR Y213A (Aplysia californica)
[5] = target: ALKR L157Q (Aplysia californica)
[6] = target: ALKR Q250A & Q311A (Aplysia californica)
[7] = target: ALKR I329Q (Aplysia californica)
[8] = target: ALKR L157Q & I329Q (Aplysia californica)
[9] = target: ALKR Q133A & Y213A & Q317A (Aplysia californica)
[10] = target: ALKR Q317A (Aplysia californica)
[11] = target: ALKR N314A (Aplysia californica)
[12] = target: T2, Anopheles LKR (Anopheles stephensi, UniProt Q694V6); assay: IP1 accumulation assay, CHO-K1 cells cotransfected with Anopheles LKR and promiscuous Gαq; assay type: cell-based; conditions: log scale, mean ± SEM, n = 3
T2 sequence (Q694V6 1-573): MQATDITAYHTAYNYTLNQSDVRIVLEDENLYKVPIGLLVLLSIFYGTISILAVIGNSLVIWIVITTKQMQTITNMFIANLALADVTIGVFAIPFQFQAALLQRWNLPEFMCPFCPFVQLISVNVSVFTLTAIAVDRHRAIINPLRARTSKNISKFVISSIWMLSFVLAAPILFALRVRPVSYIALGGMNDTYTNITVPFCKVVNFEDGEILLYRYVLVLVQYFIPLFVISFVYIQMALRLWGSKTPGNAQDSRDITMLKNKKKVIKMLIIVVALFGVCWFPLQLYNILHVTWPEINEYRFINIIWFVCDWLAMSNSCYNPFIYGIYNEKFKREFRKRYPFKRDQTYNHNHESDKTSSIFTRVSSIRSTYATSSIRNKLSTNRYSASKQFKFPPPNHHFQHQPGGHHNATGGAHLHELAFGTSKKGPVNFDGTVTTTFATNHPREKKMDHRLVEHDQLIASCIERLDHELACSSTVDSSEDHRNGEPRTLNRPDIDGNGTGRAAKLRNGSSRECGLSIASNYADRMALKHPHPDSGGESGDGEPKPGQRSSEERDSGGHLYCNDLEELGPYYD
Description: Considering the similarity of leucokinin-like peptides in different species (Fig. 1), we sought to evaluate cross-activity between leucokinin peptides and their receptors in different species. We selected A. stephensi because it is a pest, and this would also provide an opportunity to determine if Aplysia LKs could be potentially used as insecticides ([67]). […] Thus, we cotransfected promiscuous Gαq with the Anopheles receptor, whereas there was no cotransfection of promiscuous Gαq for ALKR.
as §1
as §2, with “Except for using 0.5 × reagents for the anti-IP1-cryptate and IP1-d2 reagents, all other procedures were performed in accordance with the IP1 detection kit manufacturer’s instructions.” left out

[13] = target: ALKR Q133A (Aplysia californica, UniProt A0A977Q7Q2, Q133A); assay: IP1 accumulation assay, ALKR mutant Q133A in CHO-K1; assay type: cell-based
Sequence of ALKR Q133A (A0A977Q7Q2 entry or part of it Q133A): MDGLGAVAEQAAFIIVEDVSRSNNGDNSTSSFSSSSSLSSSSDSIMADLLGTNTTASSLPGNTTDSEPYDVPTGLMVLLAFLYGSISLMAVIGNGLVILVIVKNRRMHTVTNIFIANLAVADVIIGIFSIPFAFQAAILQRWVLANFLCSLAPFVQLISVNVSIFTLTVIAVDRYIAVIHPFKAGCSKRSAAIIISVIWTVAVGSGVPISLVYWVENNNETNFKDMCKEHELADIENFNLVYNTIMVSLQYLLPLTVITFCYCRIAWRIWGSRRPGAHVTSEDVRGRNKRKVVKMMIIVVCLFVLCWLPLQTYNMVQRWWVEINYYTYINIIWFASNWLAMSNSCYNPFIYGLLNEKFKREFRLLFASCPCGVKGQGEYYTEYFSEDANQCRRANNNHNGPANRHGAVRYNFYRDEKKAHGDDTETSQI
Description: as §1
(§3) In order to express the Aplysia putative receptor transiently in CHO-K1, the cDNA was cloned into the mammalian expression vector pcDNA3.1(+). […] Transfection experiments were performed when the cells were grown to 70 to 90% confluence. […] On the third day, the activation of the receptors was detected by monitoring IP1 accumulation using IP1 detection kit (Cisbio, 62IPAPEB) with a Tecan Spark plate reader. […]

[14] = target: ALKR Q317N (Aplysia californica, UniProt A0A977Q7Q2, Q317N); assay: IP1 accumulation assay, ALKR mutant Q317N in CHO-K1; assay type: cell-based
Sequence of ALKR Q317N (A0A977Q7Q2 entry or part of it Q317N): as the sequence (A0A977Q7Q2 entry or part of it Q133A) above, with A133Q, Q317N counted along it
Description: as §1, §3

[15] = target: ALKR Y213A (Aplysia californica, UniProt A0A977Q7Q2, Y213A); assay: IP1 accumulation assay, ALKR mutant Y213A in CHO-K1; assay type: cell-based
Sequence of ALKR Y213A (A0A977Q7Q2 entry or part of it Y213A): as the sequence (A0A977Q7Q2 entry or part of it Q133A) above, with A133Q, Y213A counted along it
Description: as §1, §3

[16] = target: ALKR Q317A (Aplysia californica, UniProt A0A977Q7Q2, Q317A); assay: IP1 accumulation assay, ALKR mutant Q317A in CHO-K1; assay type: cell-based
Sequence of ALKR Q317A (A0A977Q7Q2 entry or part of it Q317A): as the sequence (A0A977Q7Q2 entry or part of it Q133A) above, with A133Q, Q317A counted along it
Description: as §1, §3

[17] = target: ALKR N314A (Aplysia californica, UniProt A0A977Q7Q2, N314A); assay: IP1 accumulation assay, ALKR mutant N314A in CHO-K1; assay type: cell-based
Sequence of ALKR N314A (A0A977Q7Q2 entry or part of it N314A): as the sequence (A0A977Q7Q2 entry or part of it Q133A) above, with A133Q, N314A counted along it
Description: as §1, §3

[18] = target: ALKR I329Q (Aplysia californica, UniProt A0A977Q7Q2, I329Q); assay: IP1 accumulation assay, ALKR mutant I329Q in CHO-K1; assay type: cell-based
Sequence of ALKR I329Q (A0A977Q7Q2 entry or part of it I329Q): as the sequence (A0A977Q7Q2 entry or part of it Q133A) above, with A133Q, I329Q counted along it
Description: as §1, §3

[19] = target: ALKR L157Q (Aplysia californica, UniProt A0A977Q7Q2, L157Q); assay: IP1 accumulation assay, ALKR mutant L157Q in CHO-K1; assay type: cell-based; conditions: mutant without FLAG tag, n = 3
Sequence of ALKR L157Q (A0A977Q7Q2 entry or part of it L157Q): as the sequence (A0A977Q7Q2 entry or part of it Q133A) above, with A133Q, L157Q counted along it
Description: as §1, §3

[20] = target: Aplysia leucokinin-like peptide receptor (Aplysia californica); remark: listed apart in the source
[21] = log scale, IP1 detection kit (Cisbio), mean ± SEM, inactive: greater than highest concentration tested, read-out: log [EC50] on ALKR (converted)
[22] = IP1 accumulation, average, rounded to two significant figures, read-out: EC50 on ALKR

PAFHSWA-NH2 [ALK1_A7]
EC50 [1, 21]: 28.2 nM

Aplysia leucokinin-like peptide 12
EC50 of IP1 accumulation in CHO-K1 cells transfected with ALKR [2]: 330 nM

Aplysia leucokinin-like peptide 1
EC50 of IP1 accumulation in CHO-K1 cells expressing the ALKR mutant, activated by ALK1 [3]: 78 nM
EC50 of IP1 accumulation in CHO-K1 cells expressing the ALKR mutant, activated by ALK1 [4]: 370 nM
EC50 of IP1 accumulation in CHO-K1 cells expressing the ALKR mutant, activated by ALK1 [5]: 77 nM
EC50 of IP1 accumulation in CHO-K1 cells expressing the ALKR mutant, activated by ALK1 [6]: 19000 nM
EC50 of IP1 accumulation in CHO-K1 cells expressing the ALKR mutant, activated by ALK1 [7]: 6800 nM
EC50 of IP1 accumulation in CHO-K1 cells expressing the ALKR mutant, activated by ALK1 [8]: 35000 nM
EC50 of IP1 accumulation in CHO-K1 cells expressing the ALKR mutant, activated by ALK1 [9]: 13000 nM
EC50 of IP1 accumulation in CHO-K1 cells expressing the ALKR mutant, activated by ALK1 [10]: 56 nM
EC50 of IP1 accumulation in CHO-K1 cells expressing the ALKR mutant, activated by ALK1 [11]: 120 nM

PAFSPWS-NH2 [ALK9]
EC50 [12]: 724 nM
EC50 [1, 21]: 9.77 nM

PAFHSWS-NH2 [ALK1]
EC50 [13]: 77.6 nM
EC50 [14]: 25.1 nM
EC50 [12]: 282 nM
EC50 [15]: 372 nM
EC50 [16]: 56.2 nM
EC50 [17]: 110 nM
EC50 [18]: 6760 nM
Activation of ALKR (in words) [1]: active
EC50 [1, 21]: 13.8 nM
EC50 ([19]; EC50 on ALKR L157Q): 77 nM
EC50 ([19]; log [EC50] on ALKR L157Q, log scale, mean ± SEM): 70.8 nM

LAAFHAWS-NH2 [ALK12]
EC50 [1, 21]: 295 nM

PAFHAWG-NH2 [ALK10]
EC50 [1, 21]: 21.4 nM

Aplysia leucokinin-like peptide 8
EC50 of IP1 accumulation in CHO-K1 cells transfected with ALKR [2]: 10 nM

Aplysia leucokinin-like peptide 6
EC50 of IP1 accumulation in CHO-K1 cells transfected with ALKR [2]: 32 nM

ALK1 with H4 replaced with A (peptide)
EC50 of IP1 accumulation in CHO-K1 cells transfected with ALKR [20]: 51 nM

PAFHSWS-OH [ALK1-OH]
EC50 [1, 22]: > 10000 nM
Activation of ALKR (in words) [1]: not active; also recorded: not able to activate
EC50 [1, 21]: > 10000 nM

PAFASWS-NH2 [ALK1_A4]
EC50 [1, 21]: 51.3 nM

PAAHSWS-NH2 [ALK1_A3]
EC50 [1, 22]: > 10000 nM
Activation of ALKR (in words) [1]: not active
Active (√ active / × not active) ([1]; IP1 accumulation): ×
EC50 [1, 21]: > 10000 nM

PAFNAWG-NH2 [ALK8]
EC50 [12]: 40.7 nM
EC50 [1, 21]: 10.2 nM

PAFSAWS-NH2 [ALK3]
EC50 [1, 21]: 11.7 nM

PAFHAWS-NH2 [ALK2]
EC50 [1, 21]: 21.4 nM

DTPRYVSKQKFHSWG-NH2 [Anopheles LK1, reference compound]
EC50 [12]: 3.63 nM
EC50 [1, 21]: 427 nM

SEKQPAFHAWS-NH2 [ALK6]
EC50 [1, 21]: 31.6 nM

Aplysia leucokinin-like peptide 9
EC50 of IP1 accumulation in CHO-K1 cells transfected with ALKR [2]: 10 nM

PAFSAWN-NH2 [ALK5]
EC50 [1, 21]: 10.5 nM

PRFHAWS-NH2 [ALK7]
EC50 [1, 21]: 91.2 nM

Aplysia leucokinin-like peptide 7
EC50 of IP1 accumulation in CHO-K1 cells transfected with ALKR [2]: 92 nM

PAAFHAWS-NH2 [ALK11]
EC50 [1, 21]: 61.7 nM

PAFQAWS-NH2 [ALK13]
EC50 [1, 21]: 15.1 nM

Aplysia leucokinin-like peptide 11
EC50 of IP1 accumulation in CHO-K1 cells transfected with ALKR [2]: 62 nM

AAFHSWS-NH2 [ALK1_A1]
EC50 [1, 21]: 141 nM

PAFHSWS-OH [ALK1_nG]
Active (√ active / × not active) ([1]; IP1 accumulation): ×

PAFHSAS-NH2 [ALK1_A6]
EC50 [1, 22]: > 10000 nM
Activation of ALKR (in words) [1]: not active
Active (√ active / × not active) ([1]; IP1 accumulation): ×
EC50 [1, 21]: > 10000 nM

AGFAPWA-NH2 [ALK4]
EC50 [1, 21]: 19.5 nM
